{"source": "patent US11311568B2", "about": "“Therapeutic pharmaceutical composition for cancer including miRNA” (Purmx Therapeutics, Inc., priority 2017, dated 2022)", "key": {"[1]": {"test_system": "osteosarcoma cell strain U2-OS", "experiment": "Cell growth inhibition, cell count after transfection", "format": "cell-based", "details": "final concentration 10 nM, four days after transfection, FIG. 9", "method": "(§1) Among the above four miRNAs, miR-3140-3p which had particularly high cell growth inhibition effect was transfected in each of malignant pleural mesothelioma cell strains (MSTO-211H and EHMES-10), uterine sarcoma cell strain (MES-SA), and osteosarcoma cell strain (U2-OS), and cell proliferation was observed. […] Transfection was carried out with the following protocol.\n(§2) 1: To a 35 mm dish were added 500 μL of serum free medium (SFM) and 5 μL of RNAiMAX (Invitrogen).\n(§3) 2: To the solution from 1 was added 1 μL each of miR-Control or miR-3140-3p, miR-22-3p, and miR-34a-5p (stock conc. 20 μM) (final concentration 10 nM).\n(§4) 3: This was incubated at room temperature for 20 minutes.\n(§5) 4: 1.5 mL of a cell suspension diluted to 6.7×10^4 cells/mL was added to the 35 mm dish.\n(§6) 5: This was incubated at 37° C. under 5% CO2 condition.\n(§7) 6: The cells were counted four days after transfection."}, "[2]": {"test_system": "uterine sarcoma cell strain MES-SA", "experiment": "Cell growth inhibition, cell count after transfection", "format": "cell-based", "details": "final concentration 10 nM, four days after transfection, FIG. 8", "method": "as §1, §2, §3, §4, §5, §6, §7"}, "[3]": {"test_system": "malignant pleural mesothelioma cell strain EHMES-10", "experiment": "Cell growth inhibition, cell count after transfection", "format": "cell-based", "details": "EHMES-10, final concentration 10 nM, four days after transfection, FIG. 7", "method": "as §1, §2, §3, §4, §5, §6, §7"}, "[4]": {"test_system": "malignant pleural mesothelioma cell strain MSTO-211H", "experiment": "Cell growth inhibition, cell count after transfection", "format": "cell-based", "details": "final concentration 10 nM, four days after transfection, FIG. 6", "method": "as §1, §2, §3, §4, §5, §6, §7"}, "[5]": {"test_system": "lung cancer cell strain (A549)", "experiment": "Cell growth inhibition, cell count after transfection", "format": "cell-based", "details": "A549, final concentration 10.0 nM, six days after transfection, FIG. 11", "method": "miR-3140-3p was transfected into lung cancer cell strain (A549), and cell proliferation was observed. […] Transfection was carried out with the following protocol.\nas §2\n2: To the solution from 1 was added 1 μL each of miR-Control or miR-3140-3p, miR-22-3p, and miR-34a-5p (stock conc. 20 μM) (final concentration 10.0 nM).\nas §4, §5, §6\n6: The cells were counted six days after transfection."}, "[6]": {"test_system": "malignant pleural mesothelioma cell strain EHMES-10", "experiment": "Antitumor effect in vivo, intrathoracic orthotopic transplantation model mouse", "set-up": "species or system mice (C-B-17/Icr-scid/scid Jcl)", "method": "The tumor suppression effect of miR-3140-3p in vivo was investigated with intrathoracic orthotopic transplantation model mouse.\nSix weeks-old male mice (C-B-17/Icr-scid/scid Jcl) were used as mice. Malignant pleural mesothelioma cell strain EHMES-10 which expresses the luciferase gene was used as the tumor cell.\nThe experiment protocol is shown below.\n1: Mice were intraperitoneally administered 0.1 mL per 10 g of body weight of a mixed anesthetic drug of medetomidine hydrochloride, midazolam, and butorphanol tartrate.\n2: After anesthesia, mouse chest hair was shaved, and an incision was made in the epidermis with scissors.\n3: In the mouse pleural cavity 100 μL of tumor cells (3×10^7 cells/mL) was transplanted with a 27 G syringe for insulin.\n4: Three days after transplantation, imaging of tumor cells was performed with IVIS Spectrum CT In vivo Imaging System.\n5: After imaging, grouping was performed with successfully transplanted mice.\n6: Mice were intraperitoneally administered 0.1 mL per 10 g of body weight of a mixed anesthetic drug of medetomidine hydrochloride, midazolam, and butorphanol tartrate to anesthetize the mice.\n7: After anesthesia, 100 μL of miRNA/A6K mixture was administered in the mouse pleural cavity.\n8: Imaging was performed every week from the first imaging, and tumor expansion was observed.\n9: The time and date of death of the mice was recorded, and mice survival rate was calculated.\nThe mixed anesthetic drug of medetomidine hydrochloride, midazolam, and butorphanol tartrate was prepared as in Table 4 below. The miRNA/A6K mixture was prepared as in Table 5. Moreover, the control group was administered the RNA shown in Table 6 instead of the miRNA of the present invention.\nNote that in order to improve expression efficiency, miRNA was administered as a double-strand in combination with a complementary strand comprising partial mismatch."}, "[7]": {"test_system": "malignant pleural mesothelioma cells MSTO-211H", "experiment": "Antitumor effect in vivo, subcutaneous transplantation of MSTO-211H cells", "set-up": "species or system SCID mouse", "details": "SCID mice, MSTO-211H subcutaneous, miRNA with A6K at tumor site, 13 administrations, 34 days after transplantation, FIG. 13", "method": "In order to verify the antitumor effect of the miRNA of the present invention in vivo, experiments was performed with laboratory animals transplanted with malignant pleural mesothelioma cells.\nMalignant pleural mesothelioma cells MSTO-211H cells were used.\n1: The cells on the dish were washed twice with PBS (-).\n2: The cells were detached with trypsin.\n3: This was suspended in a medium, and cells were counted.\n4: Centrifugation at a condition of 1000 rpm for 3 min was performed to pellet down.\n5: The cells were resuspended in PBS (-) in order to obtain 2.0×10^7 cells/mL.\nSix weeks-old C-B-17/Icr-scid/scid Jcl (SCID mouse) were used as mice. SCID mice were subcutaneously administered 100 μL of the prepared cell suspension, and the cells were allowed to settle.\nNegative control which is the control sequence and miR-3140-3p which is the miRNA of the present invention were employed. A6K (from 3D Matrix) was employed as the nucleic acid delivery reagent. The administration of miRNA to mice was carried out with the following protocol.\n1: 100 μM of the nucleic acid (miRNA) was diluted with 10% saline and sterilized water in order to obtain 71.4 μM.\n2: 1% A6K solution was sonicated for 5 minutes before use.\n3: The diluted nucleic acid and the 1% A6K solution were mixed at a proportion of 1:1 to give the administration nucleic acid. […]"}}}
{"substance": "miR-3140-3p: Mature-miRNA, AGCUUUUGGGAAUUCAGGUAGU (SEQ ID NO. 2) (listed as RNA, chemistry not given here; listed as Homo sapiens)", "values": [{"measurement": "cell growth inhibition effect (cell count)", "setting": "[1]", "value": "extremely high cell growth inhibition effect compared to prior art miR-22-3p and miR-34a-5p"}, {"measurement": "cell growth inhibition effect (cell count)", "setting": "[2]", "value": "extremely high cell growth inhibition effect compared to prior art miR-22-3p and miR-34a-5p"}, {"measurement": "cell growth inhibition effect (cell count)", "setting": "[3]", "value": "extremely high cell growth inhibition effect compared to prior art miR-22-3p and miR-34a-5p"}, {"measurement": "cell growth inhibition effect (cell count)", "setting": "[4]", "value": "extremely high cell growth inhibition effect compared to prior art miR-22-3p and miR-34a-5p"}, {"measurement": "cell growth inhibition effect (cell count)", "setting": "[5]", "value": "extremely high cell growth inhibition effect"}, {"measurement": "tumor reduction by imaging", "setting": "[6]; one administration of miRNA/A6K in pleural cavity, 3.2 nmol (45 μg) per mouse, Day 10 to Day 24 after transplantation, FIG. 20", "value": "tumor reduction was seen"}, {"measurement": "tumor expansion (imaging results digitized)", "setting": "[6]; one administration of miRNA/A6K in pleural cavity, FIG. 21", "value": "significantly suppressed tumor expansion"}, {"measurement": "survival rates of mice", "setting": "[6]; one administration of miRNA/A6K in pleural cavity, FIG. 22", "value": "survival rates of mice had improved"}, {"measurement": "survival rates of mice", "setting": "[6]; three administrations of miRNA/A6K in pleural cavity, FIG. 28", "value": "more improved"}, {"measurement": "suppression of malignant pleural mesothelioma (imaging, survival)", "setting": "[6]; three administrations of miRNA/A6K in pleural cavity, FIGS. 26-28", "value": "significantly suppressed malignant pleural mesothelioma"}, {"measurement": "suppression of malignant pleural mesothelioma (imaging, survival)", "setting": "[6]; two administrations of miRNA/A6K in pleural cavity, FIGS. 23-25", "value": "significantly suppressed malignant pleural mesothelioma"}, {"measurement": "tumor weight at endpoint compared to the control group", "setting": "[7]", "value": "significantly lower"}]}
